Measured values: doi:10.1101/2023.12.04.569845, “Identification of 4-(6-((2-methoxyphenyl)amino)pyrazin-2-yl)benzoic acids as CSNK2A inhibitors with antiviral activity and improved selectivity over PIM3” (bioRxiv, 2023)
Read-outs that look alike come from different tables or passages of the source. One block for each compound: values may come before it.

What was measured:
Experiment in all cases: biochemical
Set-up in all cases: Thermal shift (DSF, SYPRO Orange) Tm shift of recombinant kinase domains at 10 uM compound
[1] = molecular target: BRAF (Homo sapiens, UniProt P15056)
Sequence of BRAF (P15056 whole entry): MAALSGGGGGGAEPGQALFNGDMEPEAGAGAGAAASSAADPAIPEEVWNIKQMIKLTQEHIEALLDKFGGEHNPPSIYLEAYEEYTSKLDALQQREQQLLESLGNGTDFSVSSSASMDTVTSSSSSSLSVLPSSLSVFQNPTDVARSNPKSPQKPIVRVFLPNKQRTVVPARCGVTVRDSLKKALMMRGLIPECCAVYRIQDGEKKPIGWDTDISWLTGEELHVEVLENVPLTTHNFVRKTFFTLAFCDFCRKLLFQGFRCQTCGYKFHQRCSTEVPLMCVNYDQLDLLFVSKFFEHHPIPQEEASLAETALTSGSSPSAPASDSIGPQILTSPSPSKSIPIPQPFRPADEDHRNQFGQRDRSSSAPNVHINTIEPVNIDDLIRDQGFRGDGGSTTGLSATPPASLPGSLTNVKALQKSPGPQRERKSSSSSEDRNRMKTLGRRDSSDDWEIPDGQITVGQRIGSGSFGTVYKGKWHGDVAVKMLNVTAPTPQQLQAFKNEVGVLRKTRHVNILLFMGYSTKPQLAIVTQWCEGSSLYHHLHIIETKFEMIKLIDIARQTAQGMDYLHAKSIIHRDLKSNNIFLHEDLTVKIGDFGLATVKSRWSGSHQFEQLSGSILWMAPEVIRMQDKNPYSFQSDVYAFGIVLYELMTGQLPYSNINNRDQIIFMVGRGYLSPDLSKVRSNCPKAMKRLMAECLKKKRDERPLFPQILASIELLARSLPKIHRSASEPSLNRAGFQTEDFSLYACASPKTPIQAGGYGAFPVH

[2] = molecular target: FES (Homo sapiens, UniProt P07332)
Sequence of FES (P07332 whole entry): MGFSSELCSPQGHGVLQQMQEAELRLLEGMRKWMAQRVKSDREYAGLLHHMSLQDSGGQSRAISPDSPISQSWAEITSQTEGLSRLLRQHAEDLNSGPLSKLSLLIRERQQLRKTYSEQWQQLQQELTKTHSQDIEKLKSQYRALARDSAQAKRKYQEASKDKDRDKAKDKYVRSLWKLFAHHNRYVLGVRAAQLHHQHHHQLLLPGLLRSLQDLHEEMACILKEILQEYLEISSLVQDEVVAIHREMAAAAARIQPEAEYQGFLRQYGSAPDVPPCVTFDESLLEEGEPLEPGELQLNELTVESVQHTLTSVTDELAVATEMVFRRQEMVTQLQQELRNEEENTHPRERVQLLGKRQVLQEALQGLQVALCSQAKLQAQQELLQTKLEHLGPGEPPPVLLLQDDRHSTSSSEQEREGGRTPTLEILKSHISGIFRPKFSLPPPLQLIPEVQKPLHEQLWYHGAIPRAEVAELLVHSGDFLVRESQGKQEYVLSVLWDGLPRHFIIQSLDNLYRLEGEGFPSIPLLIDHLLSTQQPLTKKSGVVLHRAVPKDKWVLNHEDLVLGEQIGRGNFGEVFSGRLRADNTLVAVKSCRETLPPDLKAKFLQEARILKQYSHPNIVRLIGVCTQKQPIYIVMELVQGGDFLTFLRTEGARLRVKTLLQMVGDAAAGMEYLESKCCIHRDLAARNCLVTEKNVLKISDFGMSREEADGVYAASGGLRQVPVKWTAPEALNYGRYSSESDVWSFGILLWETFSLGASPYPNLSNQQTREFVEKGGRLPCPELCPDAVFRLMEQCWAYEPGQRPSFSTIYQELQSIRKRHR

[3] = molecular target: ABL1 (Homo sapiens, UniProt P00519)
Sequence of ABL1 (P00519 whole entry): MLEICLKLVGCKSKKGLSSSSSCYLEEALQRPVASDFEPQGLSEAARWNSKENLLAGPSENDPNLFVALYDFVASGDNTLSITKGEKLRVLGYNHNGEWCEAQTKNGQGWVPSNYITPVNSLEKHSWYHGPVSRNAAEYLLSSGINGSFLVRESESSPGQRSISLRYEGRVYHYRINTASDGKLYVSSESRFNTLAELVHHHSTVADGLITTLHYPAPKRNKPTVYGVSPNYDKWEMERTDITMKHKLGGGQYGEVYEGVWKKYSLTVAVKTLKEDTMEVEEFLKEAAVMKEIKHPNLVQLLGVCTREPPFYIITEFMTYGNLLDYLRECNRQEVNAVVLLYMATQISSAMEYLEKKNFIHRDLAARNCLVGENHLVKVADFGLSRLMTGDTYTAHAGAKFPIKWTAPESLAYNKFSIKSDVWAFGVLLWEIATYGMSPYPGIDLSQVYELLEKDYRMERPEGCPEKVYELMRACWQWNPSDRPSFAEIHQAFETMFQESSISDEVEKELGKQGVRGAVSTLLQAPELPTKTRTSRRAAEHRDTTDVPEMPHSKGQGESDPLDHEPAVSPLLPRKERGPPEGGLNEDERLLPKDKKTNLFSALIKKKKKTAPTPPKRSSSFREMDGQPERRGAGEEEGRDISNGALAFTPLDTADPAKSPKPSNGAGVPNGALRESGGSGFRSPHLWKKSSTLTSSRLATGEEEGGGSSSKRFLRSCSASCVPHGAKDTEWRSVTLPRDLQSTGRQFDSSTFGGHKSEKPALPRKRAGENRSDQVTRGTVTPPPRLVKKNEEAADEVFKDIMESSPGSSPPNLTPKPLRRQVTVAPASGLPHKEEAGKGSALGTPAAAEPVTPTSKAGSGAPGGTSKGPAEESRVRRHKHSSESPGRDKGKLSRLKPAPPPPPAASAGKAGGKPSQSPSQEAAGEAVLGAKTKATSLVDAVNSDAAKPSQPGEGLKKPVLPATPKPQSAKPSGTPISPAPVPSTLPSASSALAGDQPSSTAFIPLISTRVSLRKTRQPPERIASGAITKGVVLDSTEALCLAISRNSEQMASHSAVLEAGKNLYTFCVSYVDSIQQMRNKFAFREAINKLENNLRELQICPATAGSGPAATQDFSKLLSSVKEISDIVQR

[4] = molecular target: MAPKAPK2 (Homo sapiens, UniProt P49137)
Sequence of MAPKAPK2 (P49137 whole entry): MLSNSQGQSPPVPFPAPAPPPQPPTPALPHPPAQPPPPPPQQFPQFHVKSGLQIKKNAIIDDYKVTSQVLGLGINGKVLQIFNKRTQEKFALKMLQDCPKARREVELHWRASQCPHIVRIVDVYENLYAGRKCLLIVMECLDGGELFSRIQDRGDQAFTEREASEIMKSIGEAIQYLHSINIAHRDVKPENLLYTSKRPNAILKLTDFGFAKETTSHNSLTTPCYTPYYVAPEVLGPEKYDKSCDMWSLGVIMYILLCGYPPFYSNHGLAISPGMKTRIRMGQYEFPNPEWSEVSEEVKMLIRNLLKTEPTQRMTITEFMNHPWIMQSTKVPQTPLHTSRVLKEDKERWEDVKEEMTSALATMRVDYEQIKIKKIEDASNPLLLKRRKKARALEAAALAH

[5] = molecular target: T1, TLK1 (Homo sapiens, UniProt Q9UKI8)
T1 sequence (Q9UKI8 1-766): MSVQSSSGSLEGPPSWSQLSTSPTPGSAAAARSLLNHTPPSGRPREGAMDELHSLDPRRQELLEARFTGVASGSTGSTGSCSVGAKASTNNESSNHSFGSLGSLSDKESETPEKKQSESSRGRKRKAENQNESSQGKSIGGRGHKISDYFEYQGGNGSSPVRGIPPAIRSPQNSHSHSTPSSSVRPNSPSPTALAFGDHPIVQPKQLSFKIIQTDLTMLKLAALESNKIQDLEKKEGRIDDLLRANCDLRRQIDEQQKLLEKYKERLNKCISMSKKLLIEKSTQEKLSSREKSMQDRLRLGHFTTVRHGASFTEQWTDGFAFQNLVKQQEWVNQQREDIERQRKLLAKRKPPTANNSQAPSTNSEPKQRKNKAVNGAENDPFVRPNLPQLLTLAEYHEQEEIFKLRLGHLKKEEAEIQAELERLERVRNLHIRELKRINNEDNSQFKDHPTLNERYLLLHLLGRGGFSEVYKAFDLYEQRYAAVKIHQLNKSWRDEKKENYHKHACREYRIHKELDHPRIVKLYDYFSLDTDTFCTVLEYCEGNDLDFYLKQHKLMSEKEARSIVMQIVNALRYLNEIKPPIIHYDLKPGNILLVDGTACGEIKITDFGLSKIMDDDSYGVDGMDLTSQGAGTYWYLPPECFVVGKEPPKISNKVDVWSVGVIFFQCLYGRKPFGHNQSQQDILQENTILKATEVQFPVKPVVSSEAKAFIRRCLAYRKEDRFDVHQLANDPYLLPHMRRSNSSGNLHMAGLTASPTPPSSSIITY

[6] = molecular target: T2, Haspin (Homo sapiens, UniProt Q8TF76)
T2 sequence (Q8TF76 1-798): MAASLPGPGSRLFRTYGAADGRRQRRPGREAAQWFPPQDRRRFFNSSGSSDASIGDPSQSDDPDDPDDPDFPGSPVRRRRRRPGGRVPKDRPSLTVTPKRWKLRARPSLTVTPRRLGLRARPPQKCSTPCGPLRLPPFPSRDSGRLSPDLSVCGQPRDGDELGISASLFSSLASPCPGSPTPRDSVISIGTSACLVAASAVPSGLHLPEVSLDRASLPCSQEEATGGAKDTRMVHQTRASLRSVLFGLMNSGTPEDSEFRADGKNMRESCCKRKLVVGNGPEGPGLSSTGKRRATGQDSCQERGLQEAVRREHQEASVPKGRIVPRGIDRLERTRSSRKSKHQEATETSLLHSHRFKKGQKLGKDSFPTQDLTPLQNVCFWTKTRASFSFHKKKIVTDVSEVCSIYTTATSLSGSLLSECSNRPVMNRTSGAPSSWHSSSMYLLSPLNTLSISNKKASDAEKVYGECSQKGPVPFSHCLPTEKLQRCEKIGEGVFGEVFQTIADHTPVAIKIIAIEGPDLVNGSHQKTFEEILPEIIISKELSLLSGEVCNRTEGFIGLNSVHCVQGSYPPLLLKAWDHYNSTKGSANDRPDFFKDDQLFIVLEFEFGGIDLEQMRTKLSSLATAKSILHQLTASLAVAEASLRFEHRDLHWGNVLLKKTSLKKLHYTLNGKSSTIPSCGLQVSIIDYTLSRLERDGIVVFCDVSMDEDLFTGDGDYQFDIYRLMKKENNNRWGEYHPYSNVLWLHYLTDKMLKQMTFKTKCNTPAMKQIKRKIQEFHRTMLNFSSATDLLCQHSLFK

ΔTm at 10 µM ([1]; read-out: 6c): 8 °C | ΔTm at 10 µM ([2]; read-out: 6c): -1 °C | ΔTm at 10 µM ([3]; read-out: 6c): 8 °C | ΔTm at 10 µM ([4]; read-out: 6c): -1 °C | ΔTm at 10 µM ([5]; read-out: 6c): -1 °C | ΔTm at 10 µM ([6]; read-out: 6c): 0 °C
SMILES: CC(C)Oc1ccc2ccn(-c3cncc(-c4ccc(C(=O)O)cc4)n3)c2c1 [6c]

ΔTm at 10 µM ([1]; read-out: 7c): 7 °C | ΔTm at 10 µM ([2]; read-out: 7c): 0 °C | ΔTm at 10 µM ([3]; read-out: 7c): 7 °C | ΔTm at 10 µM ([4]; read-out: 7c): 0 °C | ΔTm at 10 µM ([5]; read-out: 7c): -1 °C | ΔTm at 10 µM ([6]; read-out: 7c): 5 °C
SMILES: COc1ccc(OC(C)C)cc1Nc1cncc(-c2ccc(C(=O)O)cc2)n1 [7c]

ΔTm at 10 µM ([1]; read-out: 2): 6 °C | ΔTm at 10 µM ([2]; read-out: 2): 2 °C | ΔTm at 10 µM ([3]; read-out: 2): 7 °C | ΔTm at 10 µM ([4]; read-out: 2): 0 °C | ΔTm at 10 µM ([5]; read-out: 2): 1 °C | ΔTm at 10 µM ([6]; read-out: 2): 3 °C
SMILES: CC(C)Nc1ccc2cnn(-c3cncc(-c4ccc(C(=O)O)cc4)n3)c2c1 [compound 2, 2]
